The values that follow come from patent publication US5965744A, “Ortho-substituted benzoylguanidines, including composition and methods of using them” (priority 1993, dated 1999).

Data set [1] deals with T1, Na^+ /H^+ Exchanger of Rabbit Erythrocytes (Oryctolagus cuniculus, UniProt P23791).
T1 construct: The blood was removed from the aural arteries; endogenous in cells; host or cells: erythrocytes of cholesterol-fed New Zealand White rabbits (whole blood samples)
Put plainly: Inhibition of the Na^+ /H^+ Exchanger of Rabbit Erythrocytes (Na^+ influx by flame photometry). The conditions noted are these: cholesterol-fed rabbits, pH 7.4, 37° C. It is filed as cell-based, rabbit (New Zealand White). An excerpt:
Inhibition of the Na^+ /H^+ Exchanger of Rabbit Erythrocytes
New Zealand White rabbits (Ivanovas) received a standard diet containing 2% cholesterol for six weeks in order to activate the Na^+ /H^+ exchange and thus to be able to determine, by flame photometry, the Na^+ influx into the erythrocytes via Na^+ /H^+ exchange. The blood was removed from the aural arteries and rendered incoagulable using 25 IU of potassium heparin. A part of each sample was used for the duplicate determination of the hematocrit by means of centrifugation. Aliquots of in each case 100 μl were used for measuring the initial Na^+ content of the erythrocytes.
In order to determine the amiloride-sensitive sodium influx, 100 μl of each blood sample were in each case incubated, at pH 7.4 and 37° C., in 5 ml of a hyperosmolar salt/sucrose medium (mmol/l: 140 NaCl, 3 KCl, 150 sucrose, 0.1 ouabain, 20 tris(hydroxymethyl)aminomethane). The erythrocytes were then washed three times with ice-cold MgCl2 /ouabain solution ([…]: 112 MgCl2, 0.1 ouabain) and hemolyzed in 2.0 ml of distilled water. The intracellular sodium content was determined by flame photometry.
The net influx of Na^+ was calculated from the difference between the initial sodium values and the sodium content of the erythrocytes following incubation. The amiloride-inhibitable sodium influx was calculated from the difference in the sodium content of the erythrocytes following incubation with and without amiloride 3×10^-4 mol/l. This method was also employed in the case of the compounds according to the invention.

In another data set the test system is rat hearts. Conditions: isolated rat hearts, cited from earlier work.
The next data set relates to cardiac arrhythmia. The conditions noted are these: cited from earlier work.

pIC50: −log10 of the molar value. Where a name gives a salt, the structure may show the parent alone.

T1 sequence (P23791 whole entry): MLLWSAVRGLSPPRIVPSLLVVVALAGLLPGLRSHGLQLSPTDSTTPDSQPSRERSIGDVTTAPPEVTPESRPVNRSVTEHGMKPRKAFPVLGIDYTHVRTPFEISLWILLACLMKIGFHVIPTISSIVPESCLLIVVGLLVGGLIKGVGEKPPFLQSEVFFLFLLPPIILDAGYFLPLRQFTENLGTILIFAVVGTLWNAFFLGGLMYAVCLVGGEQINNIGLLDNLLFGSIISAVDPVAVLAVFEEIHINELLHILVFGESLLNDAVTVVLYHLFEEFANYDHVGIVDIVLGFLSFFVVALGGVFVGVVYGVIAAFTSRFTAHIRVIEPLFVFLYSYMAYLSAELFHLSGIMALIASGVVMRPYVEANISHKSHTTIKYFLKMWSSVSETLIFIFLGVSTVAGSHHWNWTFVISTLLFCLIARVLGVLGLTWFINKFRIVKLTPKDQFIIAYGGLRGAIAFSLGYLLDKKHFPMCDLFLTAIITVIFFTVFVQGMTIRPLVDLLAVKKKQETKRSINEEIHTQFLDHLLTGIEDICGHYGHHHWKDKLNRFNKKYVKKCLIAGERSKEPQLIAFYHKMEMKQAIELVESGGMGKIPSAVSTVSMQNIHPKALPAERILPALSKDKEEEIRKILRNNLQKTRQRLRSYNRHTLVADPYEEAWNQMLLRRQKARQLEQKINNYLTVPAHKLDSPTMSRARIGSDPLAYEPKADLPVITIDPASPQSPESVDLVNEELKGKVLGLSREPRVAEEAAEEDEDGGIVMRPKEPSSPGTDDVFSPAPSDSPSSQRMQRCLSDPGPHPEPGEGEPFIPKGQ

Consider `N=C(N)NC(=O)c1cc(I)cc(C(F)(F)F)c1F` [Example 10, 2-Fluoro-5-iodo-3-trifluoromethylbenzoylguanidine hydrochloride], for which, in data set [1], the negative-log IC50 (pIC50) was 7.05.

In the case of `Cc1ccc(C)c(C(=O)NC(=N)N)c1` [Example 5, 2,5-Dimethylbenzoylguanidine hydrochloride], in data set [1], the negative logarithm of the IC50 (pIC50) was 5.70. Against the preceding compound, the pIC50 is 1.35 log units lower.

For `N=C(N)NC(=O)c1cc(C(F)(F)F)ccc1Cl` [Example 9, 2-Chloro-5-trifluoromethylbenzoylguanidine hydrochloride], the pIC50 in data set [1] was 6.80.

As to `N=C(N)NC(=O)c1cc(C(F)(F)F)ccc1C(F)(F)F` [Example 7, 2,5-Bis(trifluoromethyl)benzoylguanidine hydrochloride], in data set [1], the pIC50 was 6.80.

For `CCN(c1nc(N)c(C(=O)NC(=N)N)nc1Cl)C(C)C` [ethylisopropylamiloride, Ethylisopropylamiloride], the “potency relative to amiloride in ventricular fibrillation model” value with rat hearts (compared with amiloride) is recorded as “even more potent than amiloride”.

For `N=C(N)NC(=O)c1ccc(Cl)cc1Cl` [Example 3, 2,4-Dichlorobenzoylguanidine hydrochloride], the negative-log IC50 (pIC50) in data set [1] is 5.10.

Consider `N=C(N)NC(=O)c1cccc(C(F)(F)F)c1F` [Example 2, 2-Fluoro-3-trifluoromethylbenzoylguanidine hydrochloride], for which the negative-log IC50 (pIC50) in data set [1] is 5.70.

In turn, `N=C(N)NC(=O)c1cc(C(F)(F)F)ccc1F` [Example 8, 2-Fluoro-5-trifluoromethylbenzoylguanidine hydrochloride] showed a pIC50 in data set [1] of 6.15. Compared with the last compound, the pIC50 is 0.45 log units higher.

For `N=C(N)NC(=O)c1ccc(C(F)(F)F)cc1F` [Example 4, 2-Fluoro-4-trifluoromethylbenzoylguanidine hydrochloride], the pIC50 in data set [1] was 5.52.

On to `N=C(N)NC(=O)c1cc(Cl)ccc1Cl` [Example 6, 2,5-Dichlorobenzoylguanidine hydrochloride], for which the pIC50 in data set [1] is 5.82.

In the case of `N=C(N)NC(=O)c1cccc(Cl)c1Cl` [Example 1, 2,3-Dichlorobenzoylguanidine hydrochloride], in data set [1], the pIC50 is below 6.00.

On to `N=C(N)NC(=O)c1nc(Cl)c(N)nc1N` [amiloride, Amiloride], for which the “undesirable side effects when treating cardiac arrhythmia” value in the data set with cardiac arrhythmia (accompanying the antiarrhythmic effect) was “hypotensive and saluretic effects”. Moreover, the antiarrhythmic effect entry with cardiac arrhythmia (as antiarrhythmic agent) is recorded as “only weakly expressed”. In addition, the “suppression of artificially induced ventricular fibrillation” value in the data set with rat hearts was “completely suppress”.

One may read the pIC50 as −log10 of the IC50, conventionally taken in molar units.
